Test results: US20210221866A1, “PROTEASE-RESISTANT LIPIDATED GLP-1 ANALOGS” (MEDIMMUNE LIMITED, priority 2015, published 2021)
Like-named read-outs stand apart in the source and are kept apart here. Numbered stars: 1 amine (or outer) side, 2 acyl side, 3 side chain; on linkers, the order of the positions; unused ones are H or OH. Square brackets hold non-standard residues; d marks the D form. Side chains are listed from the residue outwards. Peptide text beside a SMILES is read from it. * marks the point of attachment. γGlu = O=C(O)[C@H](CCC(=O)[*:2])N[*:1]; αMeF = C[C@](N)(Cc1ccccc1)C(=O)O; αMeK = C[C@](N)(CCCCN)C(=O)O; Lauroyl = CCCCCCCCCCCC(=O)*; αMeS = C[C@](N)(CO)C(=O)O; AEEA = NCCOCCOCC(=O)O; Aib = CC(C)(N)C(=O)O

Tests used:
[1] = target: T1, human glucagon receptor (GCGR) (Homo sapiens, UniProt P47871); test: cAMP assay, human GCGR cells; assay type: cell-based; details: Table 9, bis-lipidated peptides
T1 construct: expressed in transfected cells; host or cells: HEK293 cells or CHO cells
T1 sequence (P47871 26-477): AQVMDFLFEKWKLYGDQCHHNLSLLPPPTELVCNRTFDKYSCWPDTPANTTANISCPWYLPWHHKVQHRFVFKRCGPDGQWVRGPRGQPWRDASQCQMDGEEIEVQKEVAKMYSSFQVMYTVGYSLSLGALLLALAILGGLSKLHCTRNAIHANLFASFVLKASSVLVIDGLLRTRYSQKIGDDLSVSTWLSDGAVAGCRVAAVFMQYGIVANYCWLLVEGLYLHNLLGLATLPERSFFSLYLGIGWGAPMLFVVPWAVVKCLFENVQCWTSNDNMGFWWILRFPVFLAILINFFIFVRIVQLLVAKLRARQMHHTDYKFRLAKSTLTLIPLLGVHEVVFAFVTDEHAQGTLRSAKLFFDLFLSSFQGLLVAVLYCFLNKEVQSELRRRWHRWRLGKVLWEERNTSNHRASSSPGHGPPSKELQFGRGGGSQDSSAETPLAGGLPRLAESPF
Summary of the method: (§1)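 Peptide-stimulated cAMP measured by two-step HTRF after a 30 min room-temperature incubation with receptor-expressing cells (hGLP-1R, hGIPR at 1×10^5 cells/ml; hGCGR at 2×10^5 cells/ml). Duplicate dilutions; EC50 from 4-parameter logistic fit of % Delta F.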

[2] = target: T2, porcine pancreatic pepsin (Sus scrofa, UniProt P00791); test: Proteolytic resistance to pepsin (% remaining intact peptide, RP-HPLC AUC); assay type: in vitro ADME; details: t = 0; 37° C., pH 2.0
T2 construct: purchased Sigma P7012
T2 sequence (P00791 60-385): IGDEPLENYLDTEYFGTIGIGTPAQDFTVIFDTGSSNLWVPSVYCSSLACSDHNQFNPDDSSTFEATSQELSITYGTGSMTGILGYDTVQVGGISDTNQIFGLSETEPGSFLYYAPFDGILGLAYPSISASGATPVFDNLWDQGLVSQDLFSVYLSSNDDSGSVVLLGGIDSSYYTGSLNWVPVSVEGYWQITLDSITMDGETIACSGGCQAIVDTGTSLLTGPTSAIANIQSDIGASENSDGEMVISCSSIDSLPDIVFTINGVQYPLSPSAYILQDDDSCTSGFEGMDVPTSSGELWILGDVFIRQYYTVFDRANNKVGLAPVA

[3] = target: porcine pancreatic trypsin (Sus scrofa, UniProt P00761); test: Proteolytic resistance to trypsin (% remaining intact peptide, RP-HPLC AUC); assay type: in vitro ADME; details: t = 0; 37° C., pH 7.8
Sequence of porcine pancreatic trypsin (P00761 9-231): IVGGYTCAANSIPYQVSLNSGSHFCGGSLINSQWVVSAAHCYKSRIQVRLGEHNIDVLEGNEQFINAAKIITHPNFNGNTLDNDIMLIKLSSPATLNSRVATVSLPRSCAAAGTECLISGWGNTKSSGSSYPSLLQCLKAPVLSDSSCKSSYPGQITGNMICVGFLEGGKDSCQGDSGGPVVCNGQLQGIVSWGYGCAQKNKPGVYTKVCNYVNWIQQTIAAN
Method: Trypsin: Lyophilized porcine pancreatic trypsin (Sigma: T1426) was reconstituted to afford a solution of 100 μg/mL (˜300 units/mL) in assay buffer (50 mM Tris, 10 mM CaCl2), 150 mM NaCl, 1 mM HCl, adjusted to pH 7.8) to give the enzyme stock solution. […] Ratio enzyme (units):peptide (μmoles) ˜1:11. […] Ratio enzyme (units):peptide (μ moles) ˜1.2:1.
Lyophilized porcine pancreatic trypsin (Sigma: T7409) was reconstituted to 200 μg/mL (˜300 units/mL) in assay buffer (50 mM Tris, 10 mM CaCl2), 150 mM NaCl, 1 mM HCl, adjusted to pH 7.8) to give the enzyme stock solution. […] 15 μL aliquots (˜15 μg initial peptide) of the peptide-enzyme mixture were periodically withdrawn (t=0, 30 mins, 1 hr, 2 hr, 4 hr, 8 hr, 24 hr) and quenched immediately by addition to an equal volume (15 μL) of 5% TFA (v/v) in 1:1 water/acetonitrile to arrest proteolytic activity. 20 μL aliquots (˜10 μg initial peptide) were analysed by LC/MS and/or analytical RP-HPLC as follows: LC/MS method: Agilent Polaris C8-A column (4.6×100 mm, 3 micron) eluted with a linear binary gradient of 10-90% MeCN (0.1% TFA v/v) in water (0.1% TFA v/v) over 30 mins at 1.5 mL min^−1 at ambient temperature with detection by both UV absorption at 210 nm and ionization using a Waters 3100 mass detector (ESI^+ mode). Peptide fragments deriving from enzymatic hydrolysis were identified by molecular weight, allowing location of the site of cleavage. Analytical RP-HPLC method: Agilent Polaris C8-A column (4.6×100 mm, 3 micron) eluted with a linear binary gradient of 10-90% MeCN (0.1% TFA v/v) in water (0.1% TFA v/v) over either 10 or 15 mins at 1.5 mL min^−1 at 40° C. with detection by UV absorption at 210 nm. Manual integration (AUC) allowed estimation of remaining intact peptide over the time course of the experiment.
Lyophilized porcine pancreatic trypsin (Sigma: T7409) was reconstituted to 200 μg/mL (˜300 units/mL) in assay buffer (50 mM Tris, 10 mM CaCl2), 150 mM NaCl, 1 mM HCl, adjusted to pH 7.8) to give the enzyme stock solution. […] 25 μL aliquots (˜17 μg initial peptide) of the peptide-enzyme mixture were periodically withdrawn (t=0, 30 mins, 1 hr, 2 hr, 4 hr, 8 hr, 24 hr) and quenched immediately by addition to an equal volume (25 μL) of 5% TFA (v/v) in 1:1 water/acetonitrile to arrest proteolytic activity. 25 μL aliquots (˜8 μg initial peptide) were analysed by LC/MS and/or analytical RP-HPLC as follows: LC/MS method: Agilent Polaris C8-A column (4.6×100 mm, 3 micron) eluted with a linear binary gradient of 10-90% MeCN (0.1% TFA v/v) in water (0.1% TFA v/v) over 30 mins at 1.5 mL min^−1 at ambient temperature with detection by both UV absorption at 210 nm and ionization using a Waters 3100 mass detector (ESI^+ mode). Peptide fragments deriving from enzymatic hydrolysis were identified by molecular weight, allowing location of the site of cleavage. Analytical RP-HPLC method: Agilent Polaris C8-A column (4.6×100 mm, 3 micron) eluted with a linear binary gradient of 10-90% MeCN (0.1% TFA v/v) in water (0.1% TFA v/v) over either 10 or 15 mins at 1.5 mL min^−1 at 40° C. with detection by UV absorption at 210 nm. Manual integration (AUC) allowed estimation of remaining intact peptide over the time course of the experiment.

[4] = Proteolytic resistance to α-chymotrypsin (% remaining intact peptide, RP-HPLC AUC); details: recombinant α-chymotrypsin in assay buffer, pH 7.8
Method: (§3) Ratio enzyme (units):peptide (μmoles) ˜1:33. […] Ratio enzyme (units):peptide (μmoles) ˜1:2.5.
(§4) 15 μL aliquots (˜15 μg initial peptide) of the peptide-enzyme mixture are periodically withdrawn (t=0, 30 mins, 1 hr, 2 hr, 4 hr, 8 hr, 24 hr) and quenched immediately by addition to an equal volume (15 μL) of 5% TFA (v/v) in 1:1 water/acetonitrile to arrest proteolytic activity. 20 μL aliquots (˜10 μg initial peptide) are analysed by LC/MS and/or analytical RP-HPLC as follows: LC/MS method: Agilent Polaris C8-A column (4.6×100 mm, 3 micron) elutes with a linear binary gradient of 10-90% MeCN (0.1% TFA v/v) in water (0.1% TFA v/v) over 30 mins at 1.5 mL min^−1 at ambient temperature with detection by both UV absorption at 210 nm and ionization using a Waters 3100 mass detector (ESI^+ mode). Peptide fragments deriving from enzymatic hydrolysis are identified by molecular weight, allowing location of the site of cleavage. Analytical RP-HPLC method: Agilent Polaris C8-A column (4.6×100 mm, 3 micron) elutes with a linear binary gradient of 10-90% MeCN (0.1% TFA v/v) in water (0.1% TFA v/v) over either 10 or 15 mins at 1.5 mL min^−1 at 40° C. with detection by UV absorption at 210 nm. Manual integration (AUC) allows estimation of remaining intact peptide over the time course of the experiment.
(§5) 25 μL aliquots (˜6 μg initial peptide) are analysed by LC/MS and/or analytical RP-HPLC as follows: LC/MS method: Agilent Polaris C8-A column (4.6×100 mm, 3 micron) elutes with a linear binary gradient of 10-90% MeCN (0.1% TFA v/v) in water (0.1% TFA v/v) over 30 mins at 1.5 mL min^−1 at ambient temperature with detection by both UV absorption at 210 nm and ionization using a Waters 3100 mass detector (ESI±mode). Peptide fragments deriving from enzymatic hydrolysis are identified by molecular weight, allowing location of the site of cleavage. Analytical RP-HPLC method: Agilent Polaris C8-A column (4.6×100 mm, 3 micron) elutes with a linear binary gradient of 10-90% MeCN (0.1% TFA v/v) in water (0.1% TFA v/v) over either 10 or 15 mins at 1.5 mL min^−1 at 40° C. with detection by UV absorption at 210 nm. Manual integration (AUC) allows estimation of remaining intact peptide over the time course of the experiment.

[5] = test system: recombinant α-chymotrypsin; test: as above; details: t = 0; 37° C., pH 7.8
Method: as §3, §4, §5

[6] = target: T3, human glucose-dependent insulinotropic peptide receptor (GIPR) (Homo sapiens, UniProt P48546); test: cAMP assay, human GIPR cells; assay type: cell-based; details: Table 9, bis-lipidated peptides
T3 construct: expressed in transfected cells; host or cells: HEK293 cells or CHO cells
T3 sequence (P48546 22-466): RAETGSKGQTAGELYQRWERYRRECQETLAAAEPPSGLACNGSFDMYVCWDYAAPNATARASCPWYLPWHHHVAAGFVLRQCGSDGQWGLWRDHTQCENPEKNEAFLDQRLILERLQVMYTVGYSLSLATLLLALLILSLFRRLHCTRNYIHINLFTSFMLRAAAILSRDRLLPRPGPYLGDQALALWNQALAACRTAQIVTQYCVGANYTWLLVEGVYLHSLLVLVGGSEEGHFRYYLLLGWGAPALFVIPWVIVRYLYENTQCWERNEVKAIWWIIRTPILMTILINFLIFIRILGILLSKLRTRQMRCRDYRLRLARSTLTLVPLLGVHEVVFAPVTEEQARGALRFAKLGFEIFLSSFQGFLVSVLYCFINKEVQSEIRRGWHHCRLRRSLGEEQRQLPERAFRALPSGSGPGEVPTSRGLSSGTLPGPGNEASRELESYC
Summary of the method: as §1

[7] = Proteolytic resistance to fasted-state simulated intestinal fluid (FASSIF/Pancreatin); assay type: in vitro ADME; details: 37° C., read-out: Percentage remaining intact peptide (AUC by RP-HPLC) upon incubation with fasted-state simulated intestinal fluid (FASSIF/P)
Method: (§2) A fresh suspension of FASSIF/P (Fasted-State Simulated Intestinal Fluid+USP Pancreatin®) was prepared according to that described by Galia, Nicolaides, Hörter, Lobenberg, Reppas and Dressman: Pharm. Res. 15 (1998) 698-705. The resulting preparation is proteolytically equivalent to ˜375 units/mL (375 kU/L) and was used immediately without storage. Peptides for evaluation (1.0 mg, ˜250 nmoles) were initially dissolved in pre-warmed FASSIF without Pancreatin® (200 μL) to which was added pre-warmed fresh FASSIF/Pancreatin® (100 μL) to initiate potential digestion. Following momentary vortexing of the Eppendorf reaction tube the mixture was incubated at 37° C. in a thermostatic waterbath for the duration of the experiment. 25 μL aliquots of the co-incubated peptide-enzyme mixture were periodically withdrawn (t=0, 5 m, 10 m, 15 m, 30 m, 1 h, 2 h) and quenched immediately by addition to a solution of 10% TFA in 1:1 water/acetonitrile (75 μL) to arrest proteolytic activity.

[8] = test system: FASSIF/P (Fasted-State Simulated Intestinal Fluid+USP Pancreatin®); test: as above; assay type: in vitro ADME; details: t = 0; 37° C.
Method: as §2

recombinant Neprilysin = target: T4, recombinant Neprilysin (Homo sapiens, UniProt P08473); test: Proteolytic resistance to neprilysin (% remaining peptide, RP-HPLC AUC); assay type: in vitro ADME; details: t = 0 (baseline); 37° C., pH 8.3; enzyme:peptide ~1:33 for non-lipidated, ~1:2.5 for lipidated peptides
T4 construct: purchased R&D Systems 1182-ZNC-010
T4 sequence (P08473 whole entry): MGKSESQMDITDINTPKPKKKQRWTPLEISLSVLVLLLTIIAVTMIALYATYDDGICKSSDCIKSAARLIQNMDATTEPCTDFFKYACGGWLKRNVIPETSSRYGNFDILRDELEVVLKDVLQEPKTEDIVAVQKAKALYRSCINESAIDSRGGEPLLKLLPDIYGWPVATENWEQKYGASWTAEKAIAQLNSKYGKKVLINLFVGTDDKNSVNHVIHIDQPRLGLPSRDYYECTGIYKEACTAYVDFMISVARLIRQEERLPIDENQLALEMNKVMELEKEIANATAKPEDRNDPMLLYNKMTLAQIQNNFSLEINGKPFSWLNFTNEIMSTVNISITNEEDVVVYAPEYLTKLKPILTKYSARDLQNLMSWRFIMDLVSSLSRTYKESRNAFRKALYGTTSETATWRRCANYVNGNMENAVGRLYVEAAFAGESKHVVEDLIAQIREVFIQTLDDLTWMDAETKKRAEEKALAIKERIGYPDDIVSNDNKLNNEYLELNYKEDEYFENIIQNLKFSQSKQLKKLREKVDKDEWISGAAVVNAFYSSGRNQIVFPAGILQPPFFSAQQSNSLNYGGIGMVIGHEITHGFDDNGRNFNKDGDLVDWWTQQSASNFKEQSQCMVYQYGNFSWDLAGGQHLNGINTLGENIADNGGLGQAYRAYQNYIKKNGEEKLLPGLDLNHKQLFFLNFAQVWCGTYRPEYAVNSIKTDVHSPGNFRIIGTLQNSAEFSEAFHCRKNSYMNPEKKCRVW
Method: Ratio enzyme (units):peptide (moles) ˜1:33. […] Ratio enzyme (units):peptide (moles) ˜1:2.5.
15 μL aliquots (˜15 ng initial peptide) of the peptide-enzyme mixture were periodically withdrawn (t=0, 30 mins, 1 hr, 2 hr, 4 hr, 8 hr, 24 hr) and quenched immediately by addition to an equal volume (15 μL) of 5% TFA (v/v) in 1:1 water/acetonitrile to arrest proteolytic activity. 20 μL aliquots (˜10 ng initial peptide) were analyzed by LC/MS and/or analytical RP-HPLC as follows: LC/MS method: Agilent Polaris C8-A column (4.6×100 mm, 3 micron) eluted with a linear binary gradient of 10-90% MeCN (0.1% TFA v/v) in water (0.1% TFA v/v) over 30 mins at 1.5 mL min-1 at ambient temperature with detection by both UV absorption at 210 nm and ionization using a Waters 3100 mass detector (ESI+ mode). Peptide fragments deriving from enzymatic hydrolysis were identified by molecular weight, allowing location of the site of cleavage. Analytical RP-HPLC method: Agilent Polaris C8-A column (4.6×100 mm, 3 micron) eluted with a linear binary gradient of 10-90% MeCN (0.1% TFA v/v) in water (0.1% TFA v/v) over either 10 or 15 mins at 1.5 mL min^−1 at 40° C. with detection by UV absorption at 210 nm. Manual integration (AUC) allowed estimation of remaining intact peptide over the time course of the experiment.
25 μL aliquots (˜6 μg initial peptide) were analyzed by LC/MS and/or analytical RP-HPLC as follows: LC/MS method: Agilent Polaris C8-A column (4.6×100 mm, 3 micron) eluted with a linear binary gradient of 10-90% MeCN (0.1% TFA v/v) in water (0.1% TFA v/v) over 30 mins at 1.5 mL min^−1 at ambient temperature with detection by both UV absorption at 210 nm and ionization using a Waters 3100 mass detector (ESI^+ mode). Peptide fragments deriving from enzymatic hydrolysis were identified by molecular weight, allowing location of the site of cleavage. Analytical RP-HPLC method: Agilent Polaris C8-A column (4.6×100 mm, 3 micron) eluted with a linear binary gradient of 10-90% MeCN (0.1% TFA v/v) in water (0.1% TFA v/v) over either 10 or 15 mins at 1.5 mL min^−1 at 40° C. with detection by UV absorption at 210 nm. Manual integration (AUC) allowed estimation of remaining intact peptide over the time course of the experiment.

[9] = test system: FASSIF/Pancreatin® activated with 100 μg/mL human enterokinase; test: Proteolytic resistance to FASSIF/Pancreatin following full zymogen activation with enterokinase; assay type: in vitro ADME; details: t = 0; 37° C.
Method: as §2, with “Pharm. […] To the” for “Pharm. Res. 15 (1998) 698-705. The”, “preparation was added human enterokinase (100 μg/mL)” for “preparation is proteolytically equivalent”, “to ensure the potential for full zymogen activity of the mixture which” for “to ˜375 units/mL (375 kU/L) and”, “([…])” for “(100 μL)”

in vitro = details: isolated enzyme chymotrypsin, pH 7.8
Method: as §3, §4, §5

| EC50 ([1]; first replicate, read-out: Primary assay EC50 Gluc-R (n1)) | EC50 ([1]; second replicate, read-out: Primary assay EC50 Gluc-R (n2)) | Percentage remaining intact peptide (AUC by RP-HPLC) upon incubation with pepsin [2] | Percentage remaining intact peptide (AUC by RP-HPLC) upon incubation with trypsin [3] | remaining at 0.5 h [4] | remaining at 1 h [4] | remaining at 4 h [4] | remaining at 8 h [4] | remaining at 24 h [4] | Percentage remaining intact peptide (AUC by RP-HPLC) upon incubation with α-chymotrypsin [5] | EC50 ([6]; first replicate, read-out: Primary assay EC50 GIP-R (n1)) | EC50 ([6]; second replicate, read-out: Primary assay EC50 GIP-R (n2)) | remaining at 10 min, […] ([7]; t = 10 m) | remaining at 0.25 h, […] ([7]; t = 15 m) | remaining at 0.5 h, […] ([7]; t = 30 m) | remaining at 2 h, […] ([7]; t = 2 h) | Percentage remaining intact peptide (AUC by RP-HPLC) upon incubation with fasted-state simulated intestinal fluid (FASSIF/P) [8] | Percentage remaining peptide (AUC at specified time-point by RP-HPLC) upon incubation with neprilysin, t = 0 (recombinant Neprilysin) | Percentage remaining intact peptide (AUC by RP-HPLC) upon incubation with FASSIF activated with 100 μg/mL enterokinase [9] | remaining at 1 h (in vitro) | Compound |
| --- | --- | --- | --- | --- | --- | --- | --- | --- | --- | --- | --- | --- | --- | --- | --- | --- | --- | --- | --- | --- |
| ≥ 21.5 nM | ≥ 21.5 nM | 100% | 100.0% | 88.1% | 93.9% | 93.5% | 95% | 92.3% | 100% | ≥ 21.5 nM | ≥ 21.5 nM | 85.6% | 76.8% | 57.6% | 7.8% | 100% | 100% | 100% | – | CCCCCCCCCCCC(=O)N[C@@H](CCC(=O)NCCOCCOCC(=O)NCCOCCOCC(=O)NCCCC[C@H](NC(=O)[C@H](C)NC(=O)[C@@H](NC(=O)[C@H](Cc1ccccc1)NC(=O)[C@H](CCC(=O)O)NC(=O)[C@](C)(CCCCN)NC(=O)[C@H](C)NC(=O)[C@H](C)NC(=O)[C@H](CCC(=O)O)NC(=O)CNC(=O)[C@H](CCC(=O)O)NC(=O)[C@H](CC(C)C)NC(=O)[C@H](CCCCNC(=O)COCCOCCNC(=O)COCCOCCNC(=O)CC[C@H](NC(=O)CCCCCCCCCCC)C(=O)O)NC(=O)[C@H](CO)NC(=O)[C@](C)(CO)NC(=O)[C@@H](NC(=O)[C@H](CC(=O)O)NC(=O)[C@H](CO)NC(=O)[C@@H](NC(=O)[C@](C)(Cc1ccccc1)NC(=O)[C@H](CO)NC(=O)CNC(=O)[C@H](CCC(=O)O)NC(=O)C(C)(C)NC(=O)[C@@H](N)Cc1c[nH]cn1)[C@@H](C)O)C(C)C)[C@@H](C)CC)C(=O)N[C@H](C(=O)N[C@H](C(=O)N[C@@H](CCC(=O)O)C(=O)NCC(=O)NCC(N)=O)C(C)C)C(C)C)C(=O)O [compound 263] (H-H[Aib]EGS[αMeF]TSDV[αMeS]SK([AEEA-AEEA-γGlu-Lauroyl])LEGEAA[αMeK]EFIAK([AEEA-AEEA-γGlu-Lauroyl])VVEGG-NH2) |
| – | – | – | – | – | – | – | – | – | – | – | – | – | – | – | – | – | – | – | 95.6% | CCCCCCCCCCCCCCCC(=O)N[C@@H](CCC(=O)NCCCC[C@H](NC(=O)[C@H](C)NC(=O)[C@H](C)NC(=O)[C@H](CCC(N)=O)NC(=O)CNC(=O)[C@H](CCC(=O)O)NC(=O)[C@H](CC(C)C)NC(=O)[C@H](Cc1ccc(O)cc1)NC(=O)[C@H](CO)NC(=O)[C@H](CO)NC(=O)[C@@H](NC(=O)[C@H](CC(=O)O)NC(=O)[C@H](CO)NC(=O)[C@@H](NC(=O)[C@H](Cc1ccccc1)NC(=O)[C@@H](NC(=O)CNC(=O)[C@H](CCC(=O)O)NC(=O)[C@H](C)NC(=O)[C@@H](N)Cc1cnc[nH]1)[C@@H](C)O)[C@@H](C)O)C(C)C)C(=O)N[C@@H](CCC(=O)O)C(=O)N[C@@H](Cc1ccccc1)C(=O)N[C@H](C(=O)N[C@@H](C)C(=O)N[C@@H](Cc1c[nH]c2ccccc12)C(=O)N[C@@H](CC(C)C)C(=O)N[C@H](C(=O)N[C@@H](CCCNC(=N)N)C(=O)NCC(=O)N[C@@H](CCCNC(=N)N)C(=O)NCC(=O)O)C(C)C)[C@@H](C)CC)C(=O)O [Liraglutide] |
